Data reported in EP1839675A1, “NOVEL METHOD OF PROTECTING ISCHEMIC CARDIOPATHY” (Japan Science and Technology Agency, priority 2004, dated 2006).

Columns and labels:
[1] = system: neonatal rat ventricular myocytes; experiment: Cell viability (MTT) after ischemic treatment and post-ischemic reperfusion in primary cultures; assay type: cell-based; details: for effect of dbcAMP + PMA on cell viability under co-application of CFTR channel blocker: DP plus NPPB 50 µM, glibenclamide 500 µM, gemfibrozil 2 mM or 9AC 2 mM during ischemic treatment, MTT after 96 hours reperfusion
Experimental: Primary cultures of ventricular myocytes were prepared from the hearts of neonatal rats by enzyme treatment. M199+10% FBS was used as culture medium. To reduce the number of contaminating non-myocardial cells, the medium was supplemented with 100 µM BrdU during incubation. The primary cell cultures of rat myocardial cells were subjected to ischemic treatment (removal of glucose and oxygen) and post-ischemic reperfusion according to the following procedures. The medium was replaced with a glucose-free solution, which contained 108 mM NaCl, 0.5 mM MgCl2, 5.4 mM KCl, 1mM CaCl2, and 5 mM HEPES (pH adjusted to 7.4 with NaHCO3), and were incubated at 37°C for 8 hours under anaerobic conditions, which were created by replacing air with a gas mixture of 95% Ar and 5% CO2. Immediately after incubation, the solution was replaced with a glucose-containing normal medium (M199+10% FBS), and then left in a CO2 incubator (95% air (20% O2), 5% CO2, 37°C) for 96 hours (reperfusion: re-supply of glucose/reoxygenation). Cl^- channel blocker (NPPB) was administered to the primary cell cultures of rat ventricular myocytes 1 hour prior to ischemic treatment, or at the start of ischemic treatment that lasted 8 hours. Cl- channel blocker (NPPB) was also administered over a time period of 18 hours after the start of post-ischemic reperfusion. Cell viability was assayed using MTT. To ensure accuracy in viable cell count, the assay was performed using cells obtained 96 hours after the start of post-ischemic reperfusion (Figure 1).
Primary cultures of rat ventricular myocytes were prepared and cultured in the manner described in Example 1. The procedures of Example 1 were also used to expose the primary cultures of rat ventricular myocytes to ischemic treatment (removal of glucose and oxygen) and post-ischemic reperfusion.
(§1) During ischemic treatment, the primary cultures of rat ventricular myocytes were administered with CFTR channel activator (PKA activator dbcAMP (1mM) or PKC activator PMA (100 nM), or both (DP)), or CFTR channel activator + CFTR channel blocker (NPPB (50 µM), glibenclamide (500 µM), gemfibrozil (2 mM), or 9AC (2 mM)). Following administration, ischemia was induced for 8 hours, and, after 96 hours of subsequent reperfusion, cell viability was assayed using MTT (Figure 2).
as §1, with “(milrinone (0.73 µg, 1 ml), isoproterenol (10 nM), and” for “(PKA activator dbcAMP (1mM) or PKC activator”, “nM) used together (MIP)),” for “nM), or both (DP)),”, “3).” for “2).”

ischemic cardiac muscle = details: cited from earlier work; for effect on ischemic cardiac muscle: administered after a period of ischemia; for size of infarct in ischemic cardiac muscle: pre-ischemic administration
[2] = cited from earlier work
[3] = extended period (45 minutes); cited from earlier work
rat ventricular myocytes [4] = experiment: Nuclear DNA fragmentation (apoptosis) by Cell Death Detection ELISA, enrichment factor; assay type: cell-based; details: NPPB 50 µM or dbcAMP 1mM + PMA 100 nM
Experimental: Primary cultures of rat ventricular myocytes were prepared and cultured in the manner described in Example 1. The procedures of Example 1 were also used to expose the primary cultures of rat ventricular myocytes to ischemic treatment (removal of glucose and oxygen) and post-ischemic reperfusion. The primary cultures of rat ventricular myocytes were administered with CFTR channel activator (PKA activator dbcAMP (1mM) + PKC activator PMA (100 nM)), or CFTR channel blocker (NPPB (50 µM)). Administration was made at the start of ischemic treatment, which lasted 8 hours. Fragmentation of nuclear DNA in the cells was assayed immediately after ischemia or 96 hours after post-ischemic reperfusion (Figure 5). Specifically, DNA fragmentation was assayed using a method (DNA fragmentation detecting method (Cell Death Detection ELIZA kit^PLUS (Roche Diagnostics), which specifically detects […] that are characteristics of apoptotic cells. The result of measurement was obtained as enrichment factor, which was calculated according to the following formula. Enrichment factor (rate of nuclear DNA fragmentation) = absorbance of sample (dead cells)/absorbance of control (untreated cells) [formula]

rat ventricular myocytes [5] = experiment: Necrotic cell death by Hoechst 33342 / propidium iodide double staining immediately after ischemia; assay type: cell-based; details: Ventricular myocyte, NPPB 50 µM at start of ischemic treatment, after 8 hours of ischemia, group without reagent 44.4%, read-out: cells stained by PI
Experimental: Primary cultures of rat ventricular myocytes were prepared and cultured in the manner described in Example 1. The procedures of Example 1 were also used to expose the primary cultures of rat ventricular myocytes to ischemic treatment (removal of glucose and oxygen). […] Immediately after ischemia, cells were double stained to examine a rate of necrotic cell death, using Hoechst 33342 and propidium iodide (PI) according to a method known in the art. Hoechst 33342 stains the nucleus of all cells, and propidium iodide (PI) stains only dead cells with necrosis-induced membrane injury.

[6] = dbcAMP 1mM and/or PMA 100 nM during ischemic treatment, 8 hours ischemia, 96 hours reperfusion, MTT (Figure 2)

With `CCCC(=O)Nc1ncnc2c1ncn2[C@@H]1O[C@@H]2COP(=O)(O)O[C@H]2[C@H]1OC(=O)CCC` [dbcAMP, N6,2'-O-dibutyriladenosine-3':5'-cyclic monophosphate] the cell viability [1, 6] was “could not produce the effect”.
For `CCCCCCCCCCCCCC(=O)O[C@@H]1[C@@H](C)[C@@]2(O)[C@@H](C=C(CO)C[C@]3(O)C(=O)C(C)=C[C@@H]23)[C@@H]2C(C)(C)[C@]12OC(C)=O` [PMA, phorbol 12-myristate 13-acetate], the cell viability [1, 6] was “could not produce the effect”.
For `Cc1[nH]c(=O)c(C#N)cc1-c1ccncc1` [milrinone, 1,6-dihydro-2-methyl-6-oxo[3,4'-bipyridine]-5-carbonitrile], the “effect on ischemic cardiac muscle” value (ischemic cardiac muscle) is listed as “do not exhibit any effect”, the “size of infarct in ischemic cardiac muscle” value (ischemic cardiac muscle) is listed as “effective in reducing the size of infarct” and the “milrinone in the blood circulating bound to protein” value ([2]; blood) is listed as “about 70%”. For the same compound, the excretion / metabolism ([2]; in vivo) was “released into urine without being metabolized” and the half-life ([2]; in vivo) was 2 h.
In the case of `Cc1ccc(C)c(OCCCC(C)(C)C(=O)O)c1` [gemfibrozil], the “effect of dbcAMP + PMA on cell viability under co-application of CFTR channel blocker” value (“effect of dbcAMP + PMA on cell viability” for short) [1] was “completely abolished”.
For `Nc1cc(-c2ccncc2)c[nH]c1=O` [amrinone], the “effect on ischemic cardiac muscle” value (ischemic cardiac muscle) is given as “do not exhibit any effect” and the “size of infarct in ischemic cardiac muscle” value (ischemic cardiac muscle) is given as “effective in reducing the size of infarct”.
For `CC(C)c1ccc(C(=O)NC(=N)N)cc1S(C)(=O)=O` [cariporide], the “effect on injury caused by post-ischemic reperfusion” value [3] is listed as “ineffective”.
For `O=C(O)c1cc([N+](=O)[O-])ccc1NCCCc1ccccc1` [NPPB, 5-nitro-2-2(3-phenylpropylamino)-benzoate], the cell viability ([1]; 50 µM NPPB administered during ischemic treatment (8 hours), MTT 96 hours after start of reperfusion) was “significant reduction”, the “effect of dbcAMP + PMA on cell viability” value [1] was “completely abolished” and the “level of DNA fragmentation” value (rat ventricular myocytes [4]; 96 hours after reperfusion, compared with non-administered group) was “no significant difference”. The “level of DNA fragmentation” value (rat ventricular myocytes [4]; immediately after 8 hours ischemia, compared with non-ischemic cells (score of 1)) was “the same” and the cytotoxicity at 50 µM (rat ventricular myocytes [5]) was 90.3%.
With `COc1ccc(Cl)cc1C(=O)NCCc1ccc(S(=O)(=O)NC(=O)NC2CCCCC2)cc1` [glibenclamide] the “effect of dbcAMP + PMA on cell viability” value [1] was “completely abolished”.
